# Reference: patent US6994970B1, “Peptides for combating the autoantibodies that are responsible for dilatative cardiomyopathy (DCM)” (Fresenius Medical Care Affina GmbH, priority 1999, dated 2006)
# Test system: auto-antibodies bound to the affinity chromatographic column
# Assay: Eluted auto-antibodies tested for preferential binding to peptide 1 or peptide 2 bound to a solid phase
# Parameters: species or system human
# Procedure: After elution from the affinity matrix, the auto-antibodies bound to the affinity chromatographic column were tested for preferential binding to peptide 1 or peptide 2 by means of peptide 1 and peptide 2 bound to a solid phase. Auto-antibody type 1 prefers the binding of peptide 1, and auto-antibody type 2 prefers the binding of peptide 2.
Sequence,"preferential binding of auto-antibodies to peptide 1 or peptide 2 (auto-antibodies of person 2, peptides bound to a solid phase)","preferential binding of auto-antibodies to peptide 1 or peptide 2 (auto-antibodies of person 1, peptides bound to a solid phase)"
HWWRAESDEARRSYNDPKC [Peptide 2],preferably bind,–
TGSFFCELWTSGKK [Peptide 1],–,preferably bind
